# Publication PMC9995496, “A screen for MeCP2-TBL1 interaction inhibitors using a luminescence-based assay” (Scientific Reports, 2023)
# Structures can show the parent of a compound that is named as a salt. Numbered stars: 1 amine (or outer) side, 2 acyl side, 3 side chain; on linkers, the order of the positions; unused ones are H or OH. Bridge positions count the residues as written; N and C are the ends. Square brackets hold non-standard residues; d marks the D form. Peptide text beside a SMILES is read from it. I, II: the chains in the order shown. * marks the point of attachment. Actinocin(9to1) = Cc1c2oc3c(C)ccc(C(=O)[*:1])c3nc-2c(C(=O)[*:2])c(N)c1=O; NMeV = CN[C@H](C(=O)O)C(C)C; Cbz = O=C(OCc1ccccc1)*; Sar = CNCC(=O)O; CH2F = FC*
# Tested on: PRKACA-PRKAR2A interaction (SmBiT-PRKACA / LgBiT-PRKAR2A), protein kinase A
# Design: NanoLuc complementation counter-screen in cell extract, PRKACA with PRKAR2A, loss of luminescence, detects NanoLuc interference
# Conditions: 0.5 h, 20 µM; inhibitor
row,SMILES,Inh (PKA)
1,"Cc1ccccc1CN1C(=O)C2=C(CCN(Cc3ccccc3)C2)N2CCN=C12 [UM0142096:01, TIC10]",4.346

# Same assay, conditions: counter-screen for NanoLuc interference, 0.5 h, 20 µM, inhibitor, Inh (PKA)
row,SMILES,Inh (PKA) [%]
1,"N#CC[C@H](C1CCCC1)n1cc(-c2ncnc3[nH]ccc23)cn1 [UM0141500:01, Ruxolitinib (INCB018424)]",28.73
2,"Cc1ccc(Nc2nccc(N(C)c3ccc4c(C)n(C)nc4c3)n2)cc1S(N)(=O)=O [UM0127957:02, Pazopanib (GW-786034)]",11.23
3,"CN(C)C/C=C/C(=O)Nc1cc2c(Nc3ccc(F)c(Cl)c3)ncnc2cc1O[C@H]1CCOC1 [UM0141512:01, Afatinib dimaleate]",6.216

# Same assay, conditions: counter-screen for NanoLuc interference; 0.5 h, 20 µM; inhibitor
row,SMILES,Inh (PKA) [%]
1,"COC[C@@H]1CCCN1S(=O)(=O)c1ccc2c(c1)C(=O)C(=O)N2 [UM0141431:01, Caspase-3/7 Inhibitor I]",2.243
2,"COc1ccc(C(=O)N2CCCC2=O)cc1 [UM0119560:03, Aniracetam]",4.422
3,"CCN1CC(CCN2CCOCC2)C(c2ccccc2)(c2ccccc2)C1=O (centres unmarked) [UM0142035:01, Doxapram HCl]",1.453
4,"Cc1c2oc3c(C)ccc(C(=O)N[C@@H]4C(=O)N[C@H](C(C)C)C(=O)N5CCC[C@H]5C(=O)N(C)CC(=O)N(C)[C@@H](C(C)C)C(=O)O[C@@H]4C)c3nc-2c(C(=O)N[C@@H]2C(=O)N[C@H](C(C)C)C(=O)N3CCC[C@H]3C(=O)N(C)CC(=O)N(C)[C@@H](C(C)C)C(=O)O[C@@H]2C)c(N)c1=O [UM0141835:01, Actinomycin D] (I: T[dV]P[Sar][NMeV] / II: T[dV]P[Sar][NMeV]; ester I:1-I:C, II:1-II:C; linker I:N-II:N via Actinocin(9to1))",21.28
5,"CC(=O)NCCCS(=O)(=O)O [UM0133300:02, Acamprosate calcium]",0.9397
6,"O=C(O)c1ccc2c(c1)nc(Nc1cccc(Cl)c1)c1ccncc12 [UM0141995:01, CX-4945 (Silmitasertib)]",36.81
7,"CC[C@H](Nc1ncnc2[nH]cnc12)c1nc2cccc(F)c2c(=O)n1-c1ccccc1 [UM0141495:01, CAL-101 (Idelalisib, GS-1101)]",7.222
8,"Cc1c[nH]c(/C=C2\C(=O)Nc3ccccc32)c1CCC(=O)O [UM0141633:01, SU 5402]",46.56
9,"O=C1NC(=O)[C@@H](c2cn3c4c(cccc24)CCC3)[C@@H]1c1c[nH]c2ccccc12 [UM0141990:01, Tivantinib (ARQ 197)]",34.28
10,"CCCc1cc(C)[nH]c(=O)c1CNC(=O)c1cc(-c2ccnc(N3CCN(C)CC3)c2)cc2c1cnn2C(C)C [UM0141559:01, GSK343]",8.178
11,"O=C(N/N=C/c1ccc(O)c(O)c1)c1cc2ccccc2cc1O [UM0141404:01, Dynasore]",24
12,"CC(C)NCC(O)c1ccc(NS(C)(=O)=O)cc1 (centres unmarked) [UM0142510:01, Sotalol hydrochloride]",-0.9356
13,"O=[N+]([O-])c1cccc2cn[nH]c12 [UM0120050:03, 7-Nitroindazole]",2.182
14,"O=C(O)c1cc2cccc([N+](=O)[O-])c2[nH]1 [UM0142492:01, CRT0044876]",5.384
15,"O=C1NC(=O)/C(=C/c2cccc(C(F)(F)F)c2)S1 [UM0141757:01, SMI-4a]",63.38
16,"Cc1cn([C@H]2C[C@H](N=[N+]=[N-])[C@@H](CO)O2)c(=O)[nH]c1=O [UM0142451:01, Zidovudine]",1.207
17,"Cn1cc(-c2ccc(F)c(C(F)(F)F)c2)nc1C1CCN(c2ncnc3[nH]ncc23)CC1 [UM0142649:01, LY2584702]",26.28
18,"Nc1nc(=O)c2c([nH]1)NCC(CNc1ccc(C(=O)N[C@@H](CCC(=O)O)C(=O)O)cc1)N2C=O (some centres unmarked) [UM0141462:01, Leucovorin Calcium]",1.727
19,"COCCc1ccc(OCC(O)CNC(C)C)cc1 (centres unmarked) [UM0142210:01, Metoprolol Tartrate]",1.896
20,"Cn1ccnc1S [UM0132728:02, Methimazole]",3.033

row,SMILES,Inh (PKA) [%]
1,"O=C(NCC1(c2nc(-c3ccccc3)cs2)CCOCC1)c1cccc(-c2noc(C(F)(F)F)n2)c1 [UM0142136:01, TMP269]",21.99
2,"Cc1ccc(C(=O)OCc2ccc([C@@H](CN)C(=O)Nc3ccc4cnccc4c3)cc2)c(C)c1 [UM0142804:01, Netarsudil (AR-13324)]",32.51
3,"CN(C)C(=O)[C@H](O)[C@H](Cc1ccccc1)NC(=O)c1cc2cc(Cl)ccc2[nH]1 [UM0142029:01, CP-91149]",53.3
4,"Cc1ccc(CNc2ncnc3ccc(-c4ccc(CO)o4)cc23)o1 [UM0142550:01, ML167]",10.94
5,"Cc1ccc(-c2csc3ncnc(SCCC(=O)O)c23)cc1 [UM0141643:01, TTP 22]",12.61
6,"Nc1nnc(-c2cccc(Cl)c2Cl)c(N)n1 [UM0119947:03, Lamotrigine]",0.956
7,"Cc1csc(-c2nnc(Nc3ccc(Oc4ncccc4-c4ccnc(N)n4)cc3)c3ccccc23)c1 [UM0141716:01, AMG-900]",63.02
8,"Cc1ncc(C[n+]2csc(CCO)c2C)c(N)n1 [UM0118406:03, Thiamine HCl (Vitamin B1)]",-1.554
9,"COCC(=O)NC/C=C/c1ccc2ncnc(Nc3ccc(Oc4ccc(C)nc4)c(C)c3)c2c1 [UM0141457:01, CP-724714]",30.01
10,"CC1(C)CCC(CN2CCN(c3ccc(C(=O)NS(=O)(=O)c4ccc(NCC5CCOCC5)c([N+](=O)[O-])c4)c(Oc4cnc5[nH]ccc5c4)c3)CC2)=C(c2ccc(Cl)cc2)C1 [UM0135497:03, ABT-199]",28.89
11,"COc1ccc(N(C)c2nc(C)nc3ccccc23)cc1 [UM0142800:01, MPC 6827 hydrochloride]",22.54
12,"O=C(O)CCCCC(CCSCc1ccccc1)SCc1ccccc1 (centres unmarked) [UM0141790:01, CPI-613]",31.69
13,"C/C(O)=C(\C#N)C(=O)Nc1cc(Br)ccc1Br [UM0133802:02, LFM-A13]",54.46
14,"CCN(CCCOc1ccc2c(Nc3cc(CC(=O)Nc4cccc(F)c4)[nH]n3)ncnc2c1)CCOP(=O)(O)O [UM0141525:01, AZD1152]",8.114
15,"CC(=O)Nc1ccc(O)cc1 [UM0142525:01, Acetaminophen]",-0.5181
16,"COc1ccc(CCC(=O)Nc2nc3ccc(Cl)cc3s2)cc1OC [UM0141953:01, KY 02111]",9.326
17,"O=C(/C=C/c1cccc(S(=O)(=O)Nc2ccccc2)c1)NO [UM0141702:01, Belinostat (PXD101)]",1.422
18,"C=CC(=O)c1ccc2ccccc2c1 [UM0141853:01, ZM 449829]",8.312
19,"COc1cc(Nc2ncc3c(n2)-c2ccc(Cl)cc2C(c2c(F)cccc2OC)=NC3)ccc1C(=O)O [UM0135487:02, MLN8237 (Alisertib)]",50.43
20,"C=CC(=O)Nc1cc(-n2c(=O)ccc3cnc4ccc(-c5ccc(NS(C)(=O)=O)cc5)cc4c32)ccc1C [UM0141528:01, BMX-IN-1]",6.521

row,SMILES,Inh (PKA) [%]
1,"Cc1c(NC(=O)c2ccc(C(C)(C)C)cc2)cccc1-c1cn(C)c(=O)c(Nc2ccc(C(=O)N3CCOCC3)cc2)n1 [UM0141530:01, CGI-1746]",10.06
2,"NC(=O)c1ccccc1 [UM0119596:03, Benzamide]",-0.9754
3,"CN1C(=O)c2sccc2N(C)c2nc(Nc3ccc(S(N)(=O)=O)cc3)ncc21 [UM0142130:01, XMU-MP-1]",6.005
4,"COc1cc(C(=O)O)ccc1NC(=O)[C@@H]1N[C@@H](CC(C)(C)C)[C@](C#N)(c2ccc(Cl)cc2F)[C@H]1c1cccc(Cl)c1F [UM0141617:01, RG7388]",51.62
5,"CCS(=O)(=O)N1CCN(c2ccc(Nc3ncc(C(N)=O)c(NC4CC4)n3)cc2)CC1 [UM0142822:01, Cerdulatinib (PRT062070)]",16.29
6,"CCn1c(N)c(C(=O)NC)c(=O)c2ccc(C#C[C@@](C)(O)COC)nc21 [UM0142483:01, SAR131675]",0.3639
7,"COC(=O)C[C@H](NC(=O)[C@H](C)NC(=O)[C@@H](NC(=O)[C@H](CC(=O)OC)NC(=O)[C@@H](NC(=O)OCc1ccccc1)C(C)C)C(C)C)C(=O)CF [UM0141429:01, Z-VDVAD-FMK] (Cbz-VD(OMe)VAD(OMe)-CH2F)",-0.4508
8,"COc1cccc(Nc2c(C(N)=O)cnc3c(C)cc(S(=O)(=O)c4cccc(C(=O)N(C)C)c4)cc23)c1 [UM0141788:01, GSK256066]",11.7
9,"CNCc1cc(-c2ccccc2F)n(S(=O)(=O)c2cccnc2)c1 [UM0141455:01, TAK-438]",1.837
10,"Cc1cccc(CC(=O)N2CCc3c2ccc(-c2cn(C)c4ncnc(N)c24)c3F)n1 [UM0142431:01, GSK2656157]",-0.3115
11,"COc1cc2ncnc(Nc3cccc(Br)c3)c2cc1OC [UM0141943:01, PD153035 hydrochloride]",18.98
12,"CC1=C(O)C(=O)C=C2C1=CC=C1[C@@]2(C)CC[C@@]2(C)[C@@H]3C[C@](C)(C(=O)O)CC[C@]3(C)CC[C@]12C [UM0133421:02, Celastrol]",15.02
13,"COc1ccc(Cl)cc1NC(=O)Nc1cc(C)nc2ccccc12 [UM0127873:03, PQ 401]",19.94
14,"Nc1ncnc2c1c(-c1cnc3[nH]ccc3c1)nn2C1CCCC1 [UM0142428:01, PP121]",28.88
15,"COc1cccc2c1C(=O)c1c(O)c3c(c(O)c1C2=O)C[C@@](O)(C(=O)CO)C[C@@H]3O[C@H]1C[C@H](N)[C@H](O)[C@H](C)O1 [UM0133765:03, Doxorubicin]",45.98
16,"CN[C@@H](C)C(=O)N[C@H](C(=O)N1CCC[C@H]1c1nc(C(=O)c2ccc(F)cc2)cs1)C1CCCCC1 [UM0141576:01, LCL161]",0.904
17,"CC(C)C(=O)Nc1ccc([N+](=O)[O-])c(C(F)(F)F)c1 [UM0118278:03, Flutamide]",16.36
18,"CCN[C@H]1CN(CCCOC)S(=O)(=O)c2sc(S(N)(=O)=O)cc21 [UM0118906:03, Brinzolamide]",-0.219
